Test results taken from patent US20130089502A1, “PET RADIOPHARMACEUTICALS FOR DIFFERENTIAL DIAGNOSIS BETWEEN BILATERAL AND UNILATERAL CONDITIONS OF PRIMARY HYPERALDOSTERONISM” (UNIVERSITAT DES SAARLANDES, priority 2010, published 2013).

How the values were obtained:
[1] = molecular target: T1, human CYP11B2 (aldosterone synthase) (Homo sapiens, UniProt P19099); assay: Inhibition of human CYP11B2 (aldosterone synthase) expressed in Y1 cells; type: cell-based; details: hsCYP11B2-expressing Y1 cells; substrate 1 μM; inhibitor 0.1 nM-10 μM; 48 hours incubation
T1 construct: expressed in transfected cells; host or cells: Y1 cells
T1 sequence (P19099 25-503): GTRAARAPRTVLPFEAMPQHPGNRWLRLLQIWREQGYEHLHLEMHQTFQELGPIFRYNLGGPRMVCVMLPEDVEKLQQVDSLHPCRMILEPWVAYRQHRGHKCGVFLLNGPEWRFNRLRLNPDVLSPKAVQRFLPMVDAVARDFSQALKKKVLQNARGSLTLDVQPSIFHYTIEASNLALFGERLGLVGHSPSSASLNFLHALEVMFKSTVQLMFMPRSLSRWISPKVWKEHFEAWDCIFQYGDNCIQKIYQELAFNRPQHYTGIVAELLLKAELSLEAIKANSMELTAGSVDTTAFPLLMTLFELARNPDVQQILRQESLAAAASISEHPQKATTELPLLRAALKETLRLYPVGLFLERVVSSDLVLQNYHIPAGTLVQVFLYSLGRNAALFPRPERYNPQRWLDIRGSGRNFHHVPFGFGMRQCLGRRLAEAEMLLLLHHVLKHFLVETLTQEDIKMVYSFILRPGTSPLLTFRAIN
Description: (§1) Several non-radioactive fluorinated analogs of the above radioactive tracers were prepared for testing affinity for CYP11B2 (aldosterone synthase), expressed as IC50, and selectivity for CYP11B2 over CYP11B1 (11β-hydroxylase), referred to herein as the selectivity factor, in vitro as follows:
(§2) To conduct in vitro testing of nonradioactive compounds 1a*, 1b*, 1j*, 2a*, 2c*, 2d*, and 2e* to determine IC50 values for inhibition of CYP11B1 and CYP11B2, human CYP11B1 and CYP11B2 enzymes were expressed in Y1 cells using liposome/lipid-mediated DNA transfection. To evaluate CYP11B1 and CYP11B2 inhibition, hsCYP11B1- and hsCYP11B2-expressing Y1 cells were subcultured on 6-well plates (0.5×10^6 cells/well) in 2 ml of culture medium. The enzyme reaction was started after 24 hours by the addition of 1 ml culture medium containing either 11-deoxycortisol (RSS) or 11-deoxycorticosterone (DOC) as substrate and the corresponding inhibitor. RSS and DOC were dissolved in ethanol to a final test concentration of 1 μM. For determination of IC50 values, the inhibitors were added to the culture medium at concentrations between 0.1 nM-10 μM and incubated for 48 hours. Cells which were treated in the same way but without inhibitors, served as controls. As further controls, untransfected Y1 cells were also incubated with RSS and DOC, respectively. […]

[2] = molecular target: T2, human CYP11B1 (11β-hydroxylase) (Homo sapiens, UniProt P15538); assay: Inhibition of human CYP11B1 expressed in Y1 cells, used for the selectivity factor versus CYP11B2; type: cell-based; details: ratio of IC50 values in hsCYP11B1- and hsCYP11B2-expressing Y1 cells; 48 hours incubation
T2 construct: expressed in transfected cells; host or cells: Y1 cells
T2 sequence (P15538 25-503): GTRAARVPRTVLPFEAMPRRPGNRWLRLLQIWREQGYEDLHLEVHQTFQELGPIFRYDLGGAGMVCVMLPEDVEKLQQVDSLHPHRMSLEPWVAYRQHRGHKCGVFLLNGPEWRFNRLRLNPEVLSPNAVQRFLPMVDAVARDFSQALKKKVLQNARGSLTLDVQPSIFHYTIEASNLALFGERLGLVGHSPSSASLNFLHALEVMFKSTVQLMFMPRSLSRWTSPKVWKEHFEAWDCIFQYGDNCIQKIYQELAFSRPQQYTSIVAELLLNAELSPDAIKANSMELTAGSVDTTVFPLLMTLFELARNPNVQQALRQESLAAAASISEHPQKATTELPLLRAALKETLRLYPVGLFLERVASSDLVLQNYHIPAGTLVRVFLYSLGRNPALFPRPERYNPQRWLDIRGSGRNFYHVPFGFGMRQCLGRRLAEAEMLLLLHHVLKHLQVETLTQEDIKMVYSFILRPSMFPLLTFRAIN
Description: as §1, §2

| Compound | IC50 [1] [nM] | Selectivity Factor (IC50 CYP11B1/IC50 CYP11B2) [2] |
| --- | --- | --- |
| COc1ccc2cc(-c3cncc(OCCF)c3)ccc2c1 [Compound 1a, 3-(6-methoxy-2-naphthyl)-5-(2-fluoroethoxy)pyridine] | 6.5 ± 3.8 | 104 |
| FCCOc1ccc2cc(-c3cncc4ccccc34)ccc2c1 [Compound 1j] | 15.8 ± 5.1 | >100 |
